Source: PubChem BioAssay (NCI)
Where “and” joins values, the source holds several entries; their conditions need not be identical. Equal values may be shown once.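 Where inhibition never reached the appropriate level, the endpoint shown equals the highest concentration tested. Otherwise, values were interpolated linearly from a five-concentration, 48-hour dose response in 96-well plates. GI50 marks 50% less growth. At the TGI there is no net growth.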

How the values were obtained:
Assay in all cases: DTP human tumour cell line panel, 48 h
SF-268 CNS = system: SF-268 CNS
SK-MEL-2 melanoma = system: SK-MEL-2 melanoma
SK-MEL-28 melanoma = system: SK-MEL-28 melanoma
MALME-3M melanoma = system: MALME-3M melanoma
SNB-19 CNS = system: SNB-19 CNS
EKVX NSCLC = system: EKVX NSCLC
NCI/ADR-RES ovarian = system: NCI/ADR-RES ovarian
OVCAR-4 ovarian = system: OVCAR-4 ovarian
CAKI-1 renal = system: CAKI-1 renal
MDA-MB-435 = system: MDA-MB-435

| Structure (SMILES) | TGI (SF-268 CNS) | TGI (SK-MEL-2 melanoma) | TGI (SK-MEL-28 melanoma) | TGI (MALME-3M melanoma) | TGI (SNB-19 CNS) | TGI (EKVX NSCLC) | TGI (NCI/ADR-RES ovarian) | TGI (OVCAR-4 ovarian) | TGI (CAKI-1 renal) | TGI (MDA-MB-435) [µM] | GI50 (SF-268 CNS) [µM] | GI50 (MALME-3M melanoma) [µM] | GI50 (SNB-19 CNS) [µM] | GI50 (EKVX NSCLC) [µM] | GI50 (NCI/ADR-RES ovarian) [µM] | GI50 (OVCAR-4 ovarian) [µM] |
| --- | --- | --- | --- | --- | --- | --- | --- | --- | --- | --- | --- | --- | --- | --- | --- | --- |
| COc1cc(/C=N/NC(=O)c2c(Cl)c(Cl)c(Cl)c(Cl)c2-c2nc3ccc(C(=O)c4ccccc4)cc3[nH]2)ccc1O | > 100 µM | > 100 µM | > 100 µM | > 100 µM | > 100 µM | > 100 µM | 77 µM | > 100 µM | > 100 µM | > 100 | – | – | – | – | – | – |
| O=C(/C=C/c1ccc([N+](=O)[O-])cc1)N1CCN(CCOC(c2ccc(F)cc2)c2ccc(F)cc2)CC1 | > 100 µM | > 100 µM | > 100 µM | > 100 µM | > 100 µM | > 100 µM | > 100 µM | > 100 µM | > 100 µM | > 100 | – | – | – | – | – | – |
| COc1cccc([C@@H]2C/C(=N\NC(=O)C(=O)N[C@@H](C)c3ccccc3)c3ccccc3N2)c1 | > 100 µM | > 100 µM | > 100 µM | – | > 100 µM | > 100 µM | > 100 µM | > 100 µM | > 100 µM | 48.8 | – | – | – | – | – | – |
| c1ccc(/C(=N\Nc2nc3ccccc3[nH]2)c2ccccn2)cc1 | > 45.9 µM | 21.4 µM | 12.8 µM | 8.31 µM | > 100 µM | 2.96 µM | 0.842 µM | 4.99 µM | 8.79 µM | 13.7 | – | – | – | – | – | – |
| c1ccc(CSC(SCc2ccccc2)c2cccc3ccccc23)cc1 | > 10 µM | > 10 µM | > 10 µM | > 10 µM | > 10 µM | > 10 µM | > 10 µM | > 10 µM | > 10 µM | > 10 | – | – | – | – | – | – |
| C[n+]1c2ccccc2c(N=[N+]=[N-])c2ccccc21 | > 10 µM | > 10 µM | > 10 µM | > 10 µM | > 10 µM | > 10 µM | > 10 µM | > 10 µM | > 10 µM | > 10 | – | – | – | – | – | – |
| O=C1OC(c2ccc(O)cc2)(c2ccc(O)cc2)c2ccc(Cl)c3cccc1c23 (tested in a mixture with another compound) | 52.8 µM | 31.6 µM | 21.1 µM | 29.1 µM | > 75 µM | 4.88 µM | 25.7 µM | 0.325 µM | 22 µM | 18.9 | – | – | – | – | – | – |
| CC[C@@]1(O)CC(OC2CC(N3CCOCC3)C(O)C(C)O2)c2c(O)c3c(c(O)c2[C@H]1O)C(=O)c1cccc(O)c1C3=O (stereo not given in full) | 3.27 µM and 2.1 µM | 0.959 µM and 1.5 µM | 1.8 µM and 1.94 µM | 0.258 µM and 0.339 µM | 3.92 µM and 4.16 µM | 1.02 µM and 1.63 µM | 1.55 µM and 4.61 µM | 1.55 µM and 2.88 µM | 0.318 µM and 0.243 µM | 1.14 | 0.091 | 0.034 | 0.0292 | 0.241 | 0.0133 | 0.199 |
| Cc1cc(C)c2c(=O)n(CC(O)CN(Cc3ccccc3)CC(O)Cn3sc4nc(C)cc(C)c4c3=O)sc2n1 (stereo not given) | 30.9 µM | 33.1 µM | 74.1 µM | 27.4 µM | 34.7 µM | 44.5 µM | 67.2 µM | 32.4 µM | 33.4 µM | 31.4 | – | – | – | – | – | – |
| NC1CCN(c2nc3ccccc3c3c2CCCC3)CC1 | 33 µM | 10.5 µM | 10.6 µM | 19.8 µM | 22.7 µM | 21.4 µM | 28.8 µM | 4.63 µM | 19.1 µM | 7.61 | – | – | – | – | – | – |
| O=C(CSCC(=O)N/N=C\c1ccc(F)cc1F)N/N=C\c1ccc(F)cc1F | > 100 µM | > 100 µM | > 100 µM | > 100 µM | > 100 µM | > 100 µM | > 100 µM | > 100 µM | > 100 µM | > 100 | – | – | – | – | – | – |
| C=C(CN(C)C)C(=O)c1ccccc1OC | 63.7 µM | 30 µM | 38.2 µM | 16.5 µM | > 87.6 µM | 48.6 µM | 65.3 µM | 45.9 µM | 26.1 µM | 34.2 | – | – | – | – | – | – |
| O=C(O)c1cc2ccccc2c(N=Nc2ccc(S(=O)(=O)Nc3ccccn3)cc2)c1O | > 100 µM | > 100 µM | > 100 µM | > 100 µM | > 100 µM | > 100 µM | > 100 µM | > 100 µM | > 100 µM | > 100 | – | – | – | – | – | – |
| CC1(C)CN(CC(=O)O)CC(Cc2ccc(OCC(=O)O)cc2)N(CC(=O)O)CC(C)(C)SS1 (stereo not given) | > 100 µM | > 100 µM | > 100 µM | > 100 µM | > 100 µM | > 100 µM | > 100 µM | > 100 µM | > 100 µM | > 100 | – | – | – | – | – | – |
